Data on four compounds can be found in ChEMBL document CHEMBL1155585, “Cypellocarpins A-C, phenol glycosides esterified with oleuropeic acid, from Eucalyptus cypellocarpa” (J Nat Prod, 2000).

Each structure is given as a SMILES string.

The species named for data set [1] is Mus musculus. Put plainly: Antitumor activity against (+/-)-(E)-4-methyl-2-[(E)-hydroxyimino]-6-methoxy-5-nitro-3-hexenamide/TPA-induced carcinogenesis in mouse assessed as reduction in number of tumor bearing mouse at 50 molar ratio/TPA after 10 weeks relative to control. Format: functional. Also noted: scale not given: the % may be the effect or the level left.

Data set [2] can be described thus: Cytotoxicity against human Raji cells assessed as cell viability at 1000 molar ratio/TPA. Format: cell-based. The following applies: read-out: Activity.
The species entered for data set [3] is Mus musculus. Put plainly: Antitumor activity against (+/-)-(E)-4-methyl-2-[(E)-hydroxyimino]-6-methoxy-5-nitro-3-hexenamide/TPA-induced carcinogenesis in mouse assessed as reduction in number of tumor bearing mouse at 50 molar ratio/TPA after 20 weeks relative to control. In kind it is functional. Also on record: scale not given: the % may be the effect or the level left.

Consider `Cc1c(O[C@@H]2O[C@H](CO)[C@@H](O)[C@H](O)[C@H]2O)c(C=O)c(O)c2c1OC(C)(C)C=C2`, for which the Activity in data set [1] worked out at 30%. Moreover, the viability at 1000 molar ratio/TPA in data set [2] is 60%.
Taken in the same sequence, the figures for `Cc1cc(=O)c2c(O)cc(O[C@@H]3O[C@H](COC(=O)C4=CC[C@H](C(C)(C)O)CC4)[C@@H](O)[C@H](O)[C@H]3O)cc2o1` [CYPELLOCARPA C] were 30% and 70%.
Take `CC(C)(O)[C@H]1CC=C(C(=O)OC[C@H]2O[C@@H](Oc3cc(C(=O)O)cc(O)c3O)[C@H](O)[C@@H](O)[C@@H]2O)CC1` [CYPELLOCARPIN A]: in data set [2], the viability at 1000 molar ratio/TPA is 70%.
With `CC1(O)CC(=O)c2c(O)cc(O[C@@H]3O[C@H](COC(=O)C4=CC[C@H](C(C)(C)O)CC4)[C@@H](O)[C@H](O)[C@H]3O)cc2O1` (stereo partly drawn) [CYPELLOCARPIN B], the Activity is listed as 58% in data set [3] and 30% in data set [1]. In addition, the viability at 1000 molar ratio/TPA in data set [2] came to 70%.
